From patent US7279497B2, “Benzopyran derivatives substituted with secondary amines including imidazole, their preparation and pharmaceutical compositions containing them” (Korea Research Institute of Chemical Technology, priority 2002, dated 2007)

Tests used:
[1] = system: HUVECs (Human umbilical vein endothelial cells); assay: Inhibitory effects on HUVEC tube formation; format: cell-based; settings: for inhibitory effect on HUVEC tube formation: 50 uM; for Tube formation: 50 μM;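 on tube formation: from minus no inhibition up to plus-plus-plus complete inhibition versus vehicle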
Method: The Inhibitory effects of the compounds of the formula 1 on angiogenesis were meassured by the vascular tube formation assay of HUVECs (Human umbilical vein endothelial cells), which is one of the major angiogenic steps.
HUVECs were isolated from human umbilical vein, and cultured. HUVECs within passage 5 from confluent cultures were detached, and plated onto a layer of a bFGF (basic fibroblast growth factor)-reduced and polymerized Matrigel. Matrigel cultures were incubated with or without the compounds of formula 1, and the changes of cell morphology were captured through a phase contrast microscope and photographed.

SPF SD rats = settings: rat, in vivo, po;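 further: Six-week-old animals, two per group, followed across an observation period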

Compound | inhibitory effect on HUVEC tube formation [1] | Tube formation [1] | clinical symptoms, body weight and mortality (SPF SD rats)
COC(OC)[C@]1(C)Oc2ccc([N+](=O)[O-])cc2[C@H](N(Cc2ncc[nH]2)c2ccc(Cl)cc2)[C@H]1O [Example 3, (2R,3R,4S)-3,4-dihydro-2-dimethoxymethyl-3-hydroxy-2-methyl-6-nitro-4-[N-(4-chlorophenyl)-N-(1H-imidazol-2-ylmethyl)amino]-2H-1-benzopyran] | strongly inhibited | ++ | no significant changes
COC(OC)[C@]1(C)Oc2ccc([N+](=O)[O-])cc2[C@@H](N(Cc2ncc[nH]2)c2ccc(Cl)cc2)[C@@H]1O [Example 4, (2R,3S,4R)-3,4-dihydro-2-dimethoxymethyl-3-hydroxy-2-methyl-6-nitro-4-[N-(4-chlorophenyl)-N-(1H-imidazol-2-ylmethyl)amino]-2H-1-benzopyran] |  | + | no significant changes
COC(OC)[C@@]1(C)Oc2ccc([N+](=O)[O-])cc2[C@@H](N(Cc2ncc[nH]2)c2ccc(C(F)(F)F)cc2)[C@@H]1O [Example 5, (2S,3S,4R)-3,4-dihydro-2-dimethoxymethyl-3-hydroxy-2-methyl-6-nitro-4-[N-(4-trifluoromethylphenyl)-N-(1H-imidazol-2-ylmethyl)amino]-2H-1-benzopyran] | strongly inhibited | ++ | no significant changes
COC(OC)[C@@]1(C)Oc2ccc([N+](=O)[O-])cc2[C@@H](N(Cc2ncc[nH]2)c2ccc(OC(F)(F)F)cc2)[C@@H]1O [Example 7, (2S,3S,4R)-3,4-dihydro-2-dimethoxymethyl-3-hydroxy-2-methyl-6-nitro-4-[N-(4-trifluoromethoxyphenyl)-N-(1H-imidazol-2-ylmethyl)amino]-2H-1-benzopyran] |  | + | no significant changes
COC(OC)[C@@]1(C)Oc2ccc([N+](=O)[O-])cc2[C@@H](N(Cc2ncc[nH]2)c2ccc(Br)cc2)[C@@H]1O [Example 8, (2S,3S,4R)-3,4-dihydro-2-dimethoxymethyl-3-hydroxy-2-methyl-6-nitro-4-[N-(4-bromophenyl)-N-(1H-imidazol-2-ylmethyl)amino]-2H-1-benzopyran] |  | + | no significant changes
COC(OC)[C@@]1(C)Oc2ccc([N+](=O)[O-])cc2[C@@H](N(Cc2ncc[nH]2)c2ccc(C)cc2C)[C@@H]1O [Example 9, (2S,3S,4R)-3,4-dihydro-2-dimethoxymethyl-3-hydroxy-2-methyl-6-nitro-4-[N-(2,4-dimethylphenyl)-N-(1H-imidazol-2-ylmethyl)amino]-2H-1-benzopyran] |  | + | no significant changes
COC(OC)[C@@]1(C)Oc2ccc([N+](=O)[O-])cc2[C@@H](N(Cc2ncc[nH]2)c2cccc(C)c2C)[C@@H]1O [Example 11, (2S,3S,4R)-3,4-dihydro-2-dimethoxymethyl-3-hydroxy-2-methyl-6-nitro-4-[N-(2,3-dimethylphenyl)-N-(1H-imidazol-2-ylmethyl)amino]-2H-1-benzopyran] |  |  | no significant changes
COC(OC)[C@@]1(C)Oc2ccc([N+](=O)[O-])cc2[C@@H](N(Cc2ncc[nH]2)c2ccc(F)cc2)[C@@H]1O [Example 15, (2S,3S,4R)-3,4-dihydro-2-dimethoxymethyl-3-hydroxy-2-methyl-6-nitro-4-[N-(4-fluorophenyl)-N-(1H-imidazol-2-ylmethyl)amino]-2H-1-benzopyran] |  |  | no significant changes
COc1ccccc1N(Cc1ncc[nH]1)[C@@H]1c2cc([N+](=O)[O-])ccc2O[C@](C)(C(OC)OC)[C@H]1O [Example 16, (2S,3S,4R)-3,4-dihydro-2-dimethoxymethyl-3-hydroxy-2-methyl-6-nitro-4-[N-(2-methoxyphenyl)-N-(1H-imidazol-2-ylmethyl)amino]-2H-1-benzopyran] |  |  | no significant changes
COC(OC)[C@]1(C)Oc2ccc([N+](=O)[O-])cc2[C@H](N(Cc2ncc[nH]2)c2ccccc2C(C)C)[C@H]1O [Example 17, (2R,3R,4S)-3,4-dihydro-2-dimethoxymethyl-3-hydroxy-2-methyl-6-nitro-4-[N-(2-isopropylphenyl)-N-(1H-imidazol-2-ylmethyl)amino]-2H-1-benzopyran] |  |  | no significant changes
COc1ccccc1N(Cc1ncc[nH]1)[C@H]1c2cc([N+](=O)[O-])ccc2O[C@@](C)(C(OC)OC)[C@@H]1O [Example 18, (2R,3R,4S)-3,4-dihydro-2-dimethoxymethyl-3-hydroxy-2-methyl-6-nitro-4-[N-(2-methoxyphenyl)-N-(1H-imidazol-2-ylmethyl)amino]-2H-1-benzopyran] |  |  | no significant changes
COC(OC)[C@]1(C)Oc2ccc([N+](=O)[O-])cc2[C@H](N(Cc2ncc[nH]2)c2cccc(Cl)c2)[C@H]1O [Example 19, (2R,3R,4S)-3,4-dihydro-2-dimethoxymethyl-3-hydroxy-2-methyl-6-nitro-4-[N-(3-chlorophenyl)-N-(1H-imidazol-2-ylmethyl)amino]-2H-1-benzopyran] |  |  | no significant changes
COC(OC)[C@@]1(C)Oc2ccc([N+](=O)[O-])cc2[C@@H](N(Cc2ncc[nH]2)c2cccc(Cl)c2)[C@@H]1O [Example 20, (2S,3S,4R)-3,4-dihydro-2-dimethoxymethyl-3-hydroxy-2-methyl-6-nitro-4-[N-(3-chlorophenyl)-N-(1H-imidazol-2-ylmethyl)amino]-2H-1-benzopyran] |  |  | no significant changes
COC(OC)[C@]1(C)Oc2ccc([N+](=O)[O-])cc2[C@H](N(Cc2ncc[nH]2)c2ccc(OC(F)(F)F)cc2)[C@H]1O [Example 21, (2R,3R,4S)-3,4-dihydro-2-dimethoxymethyl-3-hydroxy-2-methyl-6-nitro-4-[N-(4-trifluoromethoxyphenyl)-N-(1H-imidazol-2-ylmethyl)amino]-2H-1-benzopyran] |  |  | no significant changes
COC(OC)[C@@]1(C)Oc2ccc(N)cc2[C@@H](N(Cc2ncc[nH]2)c2cccc(C)c2C)[C@@H]1O [Example 30, (2S,3S,4R)-6-amino-3,4-dihydro-2-dimethoxymethyl-3-hydroxy-2-methyl-4-[N-(2,3-dimethylphenyl)-N-(1H-imidazol-2-ylmethyl)amino]-2H-1-benzopyran] |  |  | no significant changes
COc1ccccc1N(Cc1ncc[nH]1)[C@@H]1c2cc(N)ccc2O[C@](C)(C(OC)OC)[C@H]1O [Example 31, (2S,3S,4R)-6-amino-3,4-dihydro-2-dimethoxymethyl-3-hydroxy-2-methyl-4-[N-(2-methoxyphenyl)-N-(1H-imidazol-2-ylmethyl)amino]-2H-1-benzopyran] |  |  | no significant changes
COc1ccc(N(Cc2ncc[nH]2)[C@@H]2c3cc(N)ccc3O[C@](C)(C(OC)OC)[C@H]2O)cc1 [Example 32, (2S,3S,4R)-6-amino-3,4-dihydro-2-dimethoxymethyl-3-hydroxy-2-methyl-4-[N-(4-methoxyphenyl)-N-(1H-imidazol-2-ylmethyl)amino]-2H-1-benzopyran] |  |  | no significant changes
COC(OC)[C@@]1(C)Oc2ccc(N)cc2[C@@H](N(Cc2ncc[nH]2)c2ccc(C)cc2C)[C@@H]1O [Example 33, (2S,3S,4R)-6-amino-3,4-dihydro-2-dimethoxymethyl-3-hydroxy-2-methyl-4-[N-(2,4-dimethylphenyl)-N-(1H-imidazol-2-ylmethyl)amino]-2H-1-benzopyran] |  |  | no significant changes
COC(OC)[C@@]1(C)Oc2ccc(N)cc2[C@@H](N(Cc2ncc[nH]2)c2ccccc2C(C)C)[C@@H]1O [Example 34, (2S,3S,4R)-6-amino-3,4-dihydro-2-dimethoxymethyl-3-hydroxy-2-methyl-4-[N-(2-isopropylphenyl)-N-(1H-imidazol-2-ylmethyl)amino]-2H-1-benzopyran] |  |  | no significant changes
COC(OC)[C@@]1(C)Oc2ccc(N)cc2[C@@H](N(Cc2ncc[nH]2)c2ccc(OC(F)(F)F)cc2)[C@@H]1O [Example 35, (2S,3S,4R)-6-amino-3,4-dihydro-2-dimethoxymethyl-3-hydroxy-2-methyl-4-[N-(4-trifluoromethoxyphenyl)-N-(1H-imidazol-2-ylmethyl)amino]-2H-1-benzopyran] |  |  | no significant changes
COC(OC)[C@@]1(C)Oc2ccc(N)cc2[C@@H](N(Cc2ncc[nH]2)c2ccc(Br)cc2)[C@@H]1O [Example 36, (2S,3S,4R)-6-amino-3,4-dihydro-2-dimethoxymethyl-3-hydroxy-2-methyl-4-[N-(4-bromophenyl)-N-(1H-imidazol-2-ylmethyl)amino]-2H-1-benzopyran] |  |  | no significant changes
COC(OC)[C@@]1(C)Oc2ccc(N)cc2[C@@H](N(Cc2ncc[nH]2)c2ccc(F)cc2)[C@@H]1O [Example 37, (2S,3S,4R)-6-amino-3,4-dihydro-2-dimethoxymethyl-3-hydroxy-2-methyl-4-[N-(4-fluorophenyl)-N-(1H-imidazol-2-ylmethyl)amino]-2H-1-benzopyran] |  |  | no significant changes
